Source: ChEMBL document CHEMBL1201862, “PubChem BioAssay data set” (2004)
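These data come from cells grown in 96-well plates and exposed to compound for 48 hours at five concentrations. Abbreviation: GI50, concentration required for 50% inhibition of growth.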 Active and inactive are the calls of the source. No stated cut-off is given here; in the data, active = GI50 up to about 1.1 µM and inactive = higher.

Columns and labels:
Assay in all cases: growth of human tumour cells (NCI), 48 h
786-0 = tested on: 786-0
BT-549 = tested on: BT-549
CCRF-CEM = tested on: CCRF-CEM
HCC 2998 = tested on: HCC 2998
HCT-116 = tested on: HCT-116
HCT-15 = tested on: HCT-15
KM12 = tested on: KM12
MCF7 = tested on: MCF7
MDA-MB-231 = tested on: MDA-MB-231
NCI-H522 = tested on: NCI-H522
OVCAR-3 = tested on: OVCAR-3
SF-539 = tested on: SF-539
SK-MEL-28 = tested on: SK-MEL-28
SNB-19 = tested on: SNB-19
SR = tested on: SR
T47D = tested on: T47D
UACC-257 = tested on: UACC-257
UACC-62 = tested on: UACC-62
UO-31 = tested on: UO-31

Row | Compound | GI50 (786-0) | GI50 (BT-549) | GI50 (CCRF-CEM) | GI50 (HCC 2998) | GI50 (HCT-116) | GI50 (HCT-15) [µM] | GI50 (KM12) | GI50 (MCF7) | GI50 (MDA-MB-231) | GI50 (NCI-H522) | GI50 (OVCAR-3) | GI50 (SF-539) | GI50 (SK-MEL-28) | GI50 (SNB-19) | GI50 (SR) | GI50 (T47D) | GI50 (UACC-257) | GI50 (UACC-62) | GI50 (UO-31)
1 | Cc1cc(N2CCCC2)c([N+](=O)[O-])cc1[N+](=O)[O-] | > 100 µM (inactive) | > 100 µM (inactive) | > 100 µM (inactive) | > 100 µM (inactive) | > 100 µM (inactive) | > 100 | > 100 µM (inactive) | > 100 µM (inactive) | > 100 µM (inactive) | > 100 µM (inactive) | > 100 µM (inactive) | > 100 µM (inactive) | > 100 µM (inactive) | > 100 µM (inactive) | > 100 µM (inactive) | > 100 µM (inactive) | > 100 µM (inactive) | > 100 µM (inactive) | > 100 µM (inactive)
2 | C=C(C)CNCC(=C)C.Oc1c(Cl)c(Cl)c(Cl)c(Cl)c1Cl | 19.4 µM (inactive) | 25.4 µM (inactive) | 26.4 µM (inactive) | > 100 µM (inactive) | 16.4 µM (inactive) | 20.9 | 20.4 µM (inactive) | 26.6 µM (inactive) | 15.5 µM (inactive) | 22 µM (inactive) | 11 µM (inactive) | 17.6 µM (inactive) | 28.2 µM (inactive) | 32.1 µM (inactive) | 26.6 µM (inactive) | 18.2 µM (inactive) | > 100 µM (inactive) | 18.7 µM (inactive) | 15.7 µM (inactive)
3 | CN1C(=O)C(=CNc2ccccc2[N+](=O)[O-])C(=O)N(C)C1=O | > 100 µM (inactive) | > 100 µM (inactive) | > 100 µM (inactive) | > 100 µM (inactive) | > 100 µM (inactive) | > 100 | > 100 µM (inactive) | 10 µM (inactive) | > 100 µM (inactive) | > 100 µM (inactive) | > 100 µM (inactive) | > 100 µM (inactive) |  | > 100 µM (inactive) | > 100 µM (inactive) | > 100 µM (inactive) | > 100 µM (inactive) | > 100 µM (inactive) | > 100 µM (inactive)
4 | N=C(N)c1ccc(/N=N\c2c(O)ccc3c2[nH]c2ccccc23)cc1 | 1.69 µM (inactive) | 49.8 µM (inactive) | 0.25 µM (active) | 1.76 µM (inactive) | 3.31 µM (inactive) | 39.1 | 1.85 µM (inactive) | 1.75 µM (inactive) | 2.09 µM (inactive) | > 53.2 µM (inactive) | 2.1 µM (inactive) | > 49.5 µM (inactive) | 18.8 µM (inactive) | 2.47 µM (inactive) | 2.54 µM (inactive) | 2.43 µM (inactive) | 45.4 µM (inactive) | 54.2 µM (inactive) | 35.3 µM (inactive)
5 | O=C1CC2(c3ccccc3)ON=C(c3ccccc3)N2c2ccccc2N1 (stereo not given) | 88.7 µM (inactive) | 37.2 µM (inactive) | 42.2 µM (inactive) | 65 µM (inactive) | 34.3 µM (inactive) | 53.8 | 74 µM (inactive) | 55.7 µM (inactive) | 40.8 µM (inactive) | 41.6 µM (inactive) | 30.8 µM (inactive) | > 100 µM (inactive) | 50.6 µM (inactive) | > 100 µM (inactive) | 35.6 µM (inactive) | 24.6 µM (inactive) | 71.8 µM (inactive) | 37.5 µM (inactive) | 32.4 µM (inactive)
6 | c1ccc2nc3c(nc2c1)sc1ccccc13 | 23 µM (inactive) | 39.2 µM (inactive) | 30.9 µM (inactive) | 32.9 µM (inactive) | 26.7 µM (inactive) | 58.9 | 47.4 µM (inactive) | 26.5 µM (inactive) | 30.5 µM (inactive) | 24.2 µM (inactive) | 29.4 µM (inactive) | 16.4 µM (inactive) | > 100 µM (inactive) | 14.5 µM (inactive) | 41.2 µM (inactive) | > 100 µM (inactive) | 37.2 µM (inactive) | 14.9 µM (inactive) | 23.7 µM (inactive)
7 | Cc1c2c(n(CCc3ccc(Cl)cc3)c1C)NC(c1ccccc1)C(C#N)S2(=O)=O (stereo not given) | 32.3 µM (inactive) | 37 µM (inactive) | 2.08 µM (inactive) | > 100 µM (inactive) | 15.2 µM (inactive) | > 48 | 18.3 µM (inactive) | 5.14 µM (inactive) | 11.5 µM (inactive) | 11.7 µM (inactive) | > 91.2 µM (inactive) | 34.8 µM (inactive) | > 76.6 µM (inactive) | > 100 µM (inactive) | 3.22 µM (inactive) | 17.9 µM (inactive) | 58.6 µM (inactive) | 36.6 µM (inactive) | 13.9 µM (inactive)
8 | CC(C)C1CSC2N1C(=O)C2(OCc1ccccc1)C1CC1 (stereo not given) | > 100 µM (inactive) | > 100 µM (inactive) | > 100 µM (inactive) | > 100 µM (inactive) | > 100 µM (inactive) | > 100 | > 100 µM (inactive) | > 100 µM (inactive) | > 100 µM (inactive) | > 100 µM (inactive) | > 100 µM (inactive) | > 100 µM (inactive) | > 100 µM (inactive) | > 100 µM (inactive) | > 100 µM (inactive) | 97.5 µM (inactive) | > 100 µM (inactive) | > 100 µM (inactive) | > 100 µM (inactive)
9 | C/C(=N\Nc1nc2ccccc2o1)c1cccc[n+]1[O-] | 21.7 µM (inactive) | 81.7 µM (inactive) | 4.3 µM (inactive) | 0.0769 µM (active) | 4.84 µM (inactive) | 4.88 | 23.2 µM (inactive) | 5.98 µM (inactive) | 60.3 µM (inactive) | 3.86 µM (inactive) | 2.69 µM (inactive) | 23.4 µM (inactive) | 24.8 µM (inactive) | 64.7 µM (inactive) | 6.19 µM (inactive) | 2.89 µM (inactive) | 13 µM (inactive) | 46.1 µM (inactive) | 4.45 µM (inactive)
10 | N=C(N)NS(=O)(=O)c1ccc(Nc2c3ccccc3nc3ccc(C(=O)Nc4ccc(S(N)(=O)=O)cc4)cc23)cc1 | > 100 µM (inactive) | > 100 µM (inactive) | > 100 µM (inactive) | > 100 µM (inactive) | > 100 µM (inactive) | > 100 | > 100 µM (inactive) | > 100 µM (inactive) | > 100 µM (inactive) | > 100 µM (inactive) | > 100 µM (inactive) | > 100 µM (inactive) | > 100 µM (inactive) | > 100 µM (inactive) | > 100 µM (inactive) | > 100 µM (inactive) | > 100 µM (inactive) | > 100 µM (inactive) | > 100 µM (inactive)
11 | CSCCC(NC(=O)OC(C)(C)C)C(=O)NCCNc1ccc(NCCNC(=O)C(CCSC)NC(=O)OC(C)(C)C)c2c1C(=O)c1ccccc1C2=O (stereo not given) | 5.82 µM (inactive) | 4.43 µM (inactive) | 3.56 µM (inactive) | 2.32 µM (inactive) | 8.71 µM (inactive) | > 67.6 | 5.77 µM (inactive) | 6.01 µM (inactive) | 2.83 µM (inactive) | 1.39 µM (inactive) | 7.16 µM (inactive) | 2.71 µM (inactive) | 1.85 µM (inactive) | 4.75 µM (inactive) | 2.83 µM (inactive) | 5.21 µM (inactive) | 5.65 µM (inactive) | 3.8 µM (inactive) | > 100 µM (inactive)
12 | O=c1cc(N2CCOCC2)[nH]c(=O)n1-c1cccc(C(F)(F)F)c1 | > 100 µM (inactive) | > 100 µM (inactive) | > 100 µM (inactive) | > 100 µM (inactive) | > 100 µM (inactive) | > 100 | > 100 µM (inactive) | > 100 µM (inactive) | 20.7 µM (inactive) | > 100 µM (inactive) | > 100 µM (inactive) | > 100 µM (inactive) | > 100 µM (inactive) |  | > 100 µM (inactive) | > 100 µM (inactive) | > 100 µM (inactive) | > 100 µM (inactive) | > 100 µM (inactive)
13 | Sc1cnnc2ccc(Br)cc12 | > 100 µM (inactive) | 37.3 µM (inactive) | 36.9 µM (inactive) | 34.6 µM (inactive) | 86.1 µM (inactive) | 78.3 | 50.4 µM (inactive) | 34.7 µM (inactive) | > 100 µM (inactive) | 28 µM (inactive) | 30.3 µM (inactive) | 33 µM (inactive) | 40.4 µM (inactive) | 74.3 µM (inactive) | 52 µM (inactive) | 51.9 µM (inactive) | 29.4 µM (inactive) | 32.3 µM (inactive) | 34.9 µM (inactive)
14 | CCc1n[nH]c(=O)n1-c1ccncc1 | > 100 µM (inactive) | > 100 µM (inactive) | > 100 µM (inactive) | > 100 µM (inactive) | > 100 µM (inactive) | > 100 | > 100 µM (inactive) | > 100 µM (inactive) | > 100 µM (inactive) | > 100 µM (inactive) | > 100 µM (inactive) | > 100 µM (inactive) | > 100 µM (inactive) | > 100 µM (inactive) | > 100 µM (inactive) | > 100 µM (inactive) | > 100 µM (inactive) |  | > 100 µM (inactive)
15 | Cc1ccnc2nc3[nH]c4ccccc4c3cc12 | 24.4 µM (inactive) | 48 µM (inactive) | 75 µM (inactive) | > 100 µM (inactive) | > 100 µM (inactive) | > 100 | > 100 µM (inactive) | > 100 µM (inactive) | > 100 µM (inactive) | > 100 µM (inactive) | > 100 µM (inactive) | > 100 µM (inactive) |  |  | 71.1 µM (inactive) | > 100 µM (inactive) | 89.5 µM (inactive) | > 100 µM (inactive) | > 100 µM (inactive)
